# Columns and labels:
# Format in all cases: in vivo, maize
# [1] = tested on: ZEAMA Abraxas; assay: Tank-mix; post-emergence, crop damage with and without safener; settings: for HER effect + SAF / HER effect: Final assessment; for HER effect: no safener
# Description: (§1) Seeds of crops (spring wheat, TRZAS; spring barley, HORVS; maize, ZEAMA) were placed in sandy loam soil in peat pots, covered with soil and cultivated in a greenhouse under good growth conditions. Two to three weeks after sowing, the test plants were treated at the 1 to 3-leaf stage. The herbicide/safener active compound combinations according to the invention, formulated as wettable powders or emulsion concentrates, and, in parallel tests, the correspondingly formulated individual active compounds were sprayed onto the green parts of the plants in various dosages using an amount of water of 300 1/ha (converted).
# (§2) The pots were returned under good growing conditions in a glasshouse and a visual assessment of herbicidal effects was made at intervals from 1 to 3 weeks after herbicide application (DAT = days after treatment). Assessment was on a percentage basis in comparison with untreated control plants (0% = no injury, 100% = complete kill).
# [2] = tested on: ZEAMA Sileno; assay: Seed treatment with safener; post-emergence herbicide application; design: Reduction [Difference]: scale not given here; settings: Final assessment; for Reduction [%] / Reduction [Difference]: Cyprosulfamide 0.5 g a.i./kg seed; for Reduction [Difference]: damage without safener - damage with safener; for HER effect + SAF (crop damage with safener): Cyprosulfamide seed treatment 0.5 g a.i./kg seed; for HER effect (crop damage, herbicide without safener): no safener
# Description: For the safener seed treatment, sufficient seeds of the respective crops (spring wheat, TRZAS; spring barley, HORVS; maize, ZEAMA) were weighed into screw top glass bottles approximately twice the volume of the seeds.
# The specified safeners, formulated as wettable powder (WP) were weighed out so that the specified rates (g a.i./kg seed) would be obtained, dissolved in water (1 ml water per 10 g of seeds), and added to the seeds to produce a slurry.
# The bottles were capped and then placed in an overhead shaker (set at medium speed for ca. 60 minutes) so that the seeds were evenly coated with the slurry. The bottles were uncapped and the seeds were either placed on paper and dried for an interval of 3-4 hours prior to sowing, or directly sown. Seeds were placed in sandy loam soil in pots of a diameter of 7-8 cm, covered with soil, and cultivated in a greenhouse under good growth conditions.
# Post-emergence application of the specified herbicides was done when the plants had reached growth stage BBCH11-13, on two sets of plants:
# a) seed treatment with safener, as described above b) no safener treatment
# The herbicides were formulated as WP and sprayed onto the green parts of the plants as an aqueous suspension at an equivalent water application rate of 300 1/ha, with addition of wetting agent and adjuvants (e.g. Mero, 1.5 1/ha; ammonium sulphate, 2 kg/ha)
# After application, the test plants were kept in the greenhouse under good growth conditions.
# Values in the table below are mean values of at least 2 replicates.
# [3] = tested on: ZEAMA Sileno; assay: Tank-mix; post-emergence, crop damage with and without safener; settings: for HER effect + SAF / HER effect: Final assessment; for HER effect: no safener
# Description: as §1, §2
# [4] = HER 32 g a.i./ha, cyprosulfamide 100 g a.i./ha
# [5] = HER dose 32 g a.i./ha + cyprosulfamide 100 g a.i./ha tank-mix
# [6] = HER 8 g a.i./ha, cyprosulfamide 50 g a.i./ha
# [7] = HER dose 8 g a.i./ha + cyprosulfamide 50 g a.i./ha tank-mix
# [8] = HER 2 g a.i./ha, cyprosulfamide 50 g a.i./ha
# [9] = HER 2 g a.i./ha, cyprosulfamide 50 g a.i./ha, damage without safener - damage with safener
# [10] = HER dose 2 g a.i./ha + cyprosulfamide 50 g a.i./ha tank-mix
# [11] = HER dose 2 g a.i./ha, 0% = no injury, 100% = complete kill
Structure (SMILES),"Reduction [%] [1, 4] [%]","Reduction [Difference] [1, 4]","HER effect + SAF [1, 5] [%]",HER effect ([1]; HER dose 32 g a.i./ha) [%],Reduction [%] ([2]; HER dose 8 g a.i./ha),Reduction [Difference] ([2]; HER dose 8 g a.i./ha),HER effect + SAF (crop damage with safener) ([2]; HER dose 8 g a.i./ha) [%],"HER effect (crop damage, herbicide without safener) ([2]; HER dose 8 g a.i./ha) [%]",Reduction [%] ([2]; HER dose 32 g a.i./ha),Reduction [Difference] ([2]; HER dose 32 g a.i./ha),HER effect + SAF (crop damage with safener) ([2]; HER dose 32 g a.i./ha) [%],"HER effect (crop damage, herbicide without safener) ([2]; HER dose 32 g a.i./ha) [%]","Reduction [%] [1, 6] [%]","Reduction [Difference] [1, 6]","HER effect + SAF [1, 7] [%]",HER effect ([1]; HER dose 8 g a.i./ha) [%],"Reduction [%] [3, 6] [%]","Reduction [Difference] [3, 6]","Reduction [%] [3, 4] [%]","Reduction [Difference] [3, 4]",also measured
CC1(C(=O)NC2C=CC(C(=O)OCCCl)C2)CC(c2cc(F)cc(F)c2)=NO1 (mixture of isomers) [Example 1.47],84,52,10,62,–,–,–,–,–,–,–,–,–,–,–,–,–,–,–,–,–
C=CC1(C(=O)NC2CC=C(C(=O)OC)C2)CC(c2cc(F)cc(F)c2)=NO1 (mixture of isomers) [Example 1.60],79,74,20,94,94,50,3,53,88,57,8,65,69,38,17,55,–,–,–,–,–
C=CC1(C(=O)NC2COC(C(=O)OC)C2)CC(c2cc(C)cc(F)c2)=NO1 (mixture of isomers) [Example 1.71],67,61,30,91,–,–,–,–,91,29,3,32,71,41,17,58,–,–,–,–,–
CC1(C(=O)NC2COC(C(=O)OCc3cccc(F)c3)C2)CC(c2cc(F)cc(F)c2)=NO1 (mixture of isomers) [Example 1.76],26,25,70,95,100,22,0,22,74,20,7,27,74,67,23,90,–,–,–,–,–
C=CC1(C(=O)NC2COC(C(=O)OCc3ccc(OC)cc3)C2)CC(c2cc(C)cc(F)c2)=NO1 (mixture of isomers) [Example 1.86],–,–,–,–,–,–,–,–,–,–,–,–,84,27,5,32,–,–,–,–,–
CCOC(=O)C1C=CC(NC(=O)C2(C(F)(F)F)CC(c3ccccc3)=NO2)C1 (centres unmarked) [Example 1.9],–,–,–,–,100,78,0,78,100,85,0,85,–,–,–,–,87,68,59,50,"HER effect + SAF [3, 7]: 10%; HER effect ([3]; HER dose 8 g a.i./ha): 78%; HER effect + SAF [3, 5]: 35%; HER effect ([3]; HER dose 32 g a.i./ha): 85%"
COC(=O)C1C=CC(NC(=O)C2(C(F)(F)F)CC(c3cccc(F)c3)=NO2)C1 (centres unmarked) [Example 1.18],–,–,–,–,89,84,10,94,79,77,20,97,–,–,–,–,66,62,72,70,"HER effect + SAF [3, 7]: 32%; HER effect ([3]; HER dose 8 g a.i./ha): 94%; HER effect + SAF [3, 5]: 27%; HER effect ([3]; HER dose 32 g a.i./ha): 97%"
C=CC1(C(=O)NC2C=CC(C(=O)O)C2)CC(c2cc(F)cc(F)c2)=NO1 (centres unmarked) [Example 1.58],68,65,30,95,–,–,–,–,64,45,25,70,87,54,8,62,–,–,–,–,"Reduction [%] ([2]; HER dose 2 g a.i./ha): 100%; Reduction [Difference] ([2]; HER dose 2 g a.i./ha): 20; HER effect + SAF (crop damage with safener) ([2]; HER dose 2 g a.i./ha): 0%; HER effect (crop damage, herbicide without safener) ([2]; HER dose 2 g a.i./ha): 20%"
COC(=O)C1=CC(NC(=O)C2(C)CC(c3cc(F)cc(F)c3)=NO2)CC1 (centres unmarked) [Example 1.63],–,–,–,–,85,72,13,85,85,75,13,88,–,–,–,–,73,62,52,46,"Reduction [%] ([2]; HER dose 2 g a.i./ha): 100%; Reduction [Difference] ([2]; HER dose 2 g a.i./ha): 23; HER effect + SAF (crop damage with safener) ([2]; HER dose 2 g a.i./ha): 0%; HER effect (crop damage, herbicide without safener) ([2]; HER dose 2 g a.i./ha): 23%; Reduction [%] [3, 8]: 87%; Reduction [Difference] [3, 9]: 20; HER effect + SAF [3, 10]: 3%; HER effect [3, 11]: 23%; HER effect + SAF [3, 7]: 23%; HER effect ([3]; HER dose 8 g a.i./ha): 85%; HER effect + SAF [3, 5]: 42%; HER effect ([3]; HER dose 32 g a.i./ha): 88%"
C=CC1(C(=O)NC2COC(C(=O)OC)C2)CC(c2cc(F)cc(F)c2)=NO1 (centres unmarked) [Example 1.69],–,–,–,–,82,75,17,92,75,70,23,93,–,–,–,–,76,70,73,68,"HER effect + SAF [3, 7]: 22%; HER effect ([3]; HER dose 8 g a.i./ha): 92%; HER effect + SAF [3, 5]: 25%; HER effect ([3]; HER dose 32 g a.i./ha): 93%"
C=CC1(C(=O)NC2COC(C(=O)OC)C2)CC(c2cc(F)cc(F)c2)=NO1 (centres unmarked) [Example 1.70],–,–,–,–,77,75,22,97,67,66,32,98,–,–,–,–,21,20,41,40,"Reduction [%] ([2]; HER dose 2 g a.i./ha): 80%; Reduction [Difference] ([2]; HER dose 2 g a.i./ha): 70; HER effect + SAF (crop damage with safener) ([2]; HER dose 2 g a.i./ha): 18%; HER effect (crop damage, herbicide without safener) ([2]; HER dose 2 g a.i./ha): 88%; Reduction [%] [3, 8]: 77%; Reduction [Difference] [3, 9]: 68; HER effect + SAF [3, 10]: 20%; HER effect [3, 11]: 88%; HER effect + SAF [3, 7]: 77%; HER effect ([3]; HER dose 8 g a.i./ha): 97%; HER effect + SAF [3, 5]: 58%; HER effect ([3]; HER dose 32 g a.i./ha): 98%"
